According to patent US20250101028A1, “HETEROCYCLIC COMPOUNDS, COMPOSITIONS THEREOF, AND METHODS OF TREATMENT THEREWITH” (BeiGene, Ltd., priority 2022, published 2025):

biological target: T1, GST-tagged GDP-loaded KRAS G12V (amino acids 1-169) (Homo sapiens, UniProt P01116, G12V); test: KRAS G12V probe displacement assay (TR-FRET); assay type: binding; details: displacement of biotinylated probe 2 from GDP-loaded KRAS G12V
T1 construct: GST-tagged GDP-loaded KRAS G12V (amino acids 1-169); made in house; host or cells: E. coli
T1 sequence (P01116 1-169 isoform P01116-2 G12V): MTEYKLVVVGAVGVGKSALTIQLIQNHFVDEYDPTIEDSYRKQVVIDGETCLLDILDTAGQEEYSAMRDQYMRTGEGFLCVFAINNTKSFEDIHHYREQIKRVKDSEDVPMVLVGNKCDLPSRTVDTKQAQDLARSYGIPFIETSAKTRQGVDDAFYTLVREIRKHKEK
Procedure, shortened: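 Probe displacement read as TR-FRET (665/620 nm) with anti-GST-Tb and streptavidin-XL665, IC50 from four-parameter logistic fit. Compound preincubated 1 h, 24 °C, with E. coli-expressed KRAS 1-169: WT at 3 nM with 60 nM probe 1, G12V at 2 nM with 2.5 nM probe 2, pH 7.5.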

Row | SMILES | IC50 [nM]
1 | Nc1nc2c(-c3c(C(F)(F)F)cc4c(N5CCC6(CCNC(=O)O6)CC5)nc(OC[C@@]56CCCN5C[C@H](F)C6)nc4c3F)ccc(F)c2s1 [Example 99, 9-(7-(2-amino-7-fluorobenzo[d]thiazol-4-yl)-8-fluoro-2-(((2R,7aS)-2-fluorotetrahydro-1H-pyrrolizin-7a(5H)-yl)methoxy)-6-(trifluoromethyl)quinazolin-4-yl)-1-oxa-3,9-diazaspiro[5.5]undecan-2-one] | 2.8
2 | Cc1cc(N)nc(-c2c(Cl)cc3c(N4CC[C@H](O)C4)nc(OC[C@@]45CCCN4C[C@H](F)C5)nc3c2F)c1C(F)(F)F [Example 102, (3S)-1-(7-(6-amino-4-methyl-3-(trifluoromethyl)pyridin-2-yl)-6-chloro-8-fluoro-2-(((2R,7aS)-2-fluorotetrahydro-1H-pyrrolizin-7a(5H)-yl)methoxy)quinazolin-4-yl)pyrrolidin-3-ol] | 46
3 | Cc1cc(N)nc(-c2c(Cl)cc3c(N4CCC(C#N)CC4)nc(OC[C@@]45CCCN4C[C@H](F)C5)nc3c2F)c1C(F)(F)F [Example 103, 1-(7-(6-amino-4-methyl-3-(trifluoromethyl)pyridin-2-yl)-6-chloro-8-fluoro-2-(((2R,7aS)-2-fluorotetrahydro-1H-pyrrolizin-7a(5H)-yl)methoxy)quinazolin-4-yl)piperidine-4-carbonitrile] | 11
4 | Cc1cc(N)nc(-c2c(Cl)cc3c(N4CCOC[C@@H]4C)nc(OC[C@@]45CCCN4C[C@H](F)C5)nc3c2F)c1C(F)(F)F [Example 105, 6-(6-chloro-8-fluoro-2-(((2R,7aS)-2-fluorotetrahydro-1H-pyrrolizin-7a(5H)-yl)methoxy)-4-((S)-3-methylmorpholino)quinazolin-7-yl)-4-methyl-5-(trifluoromethyl)pyridin-2-amine] | 25
5 | Cc1cc(N)nc(-c2c(Cl)cc3c(N4CCC5(CC4)CN(C)C(=O)O5)nc(OC[C@@]45CCCN4C[C@H](F)C5)nc3c2F)c1C(F)(F)F [Example 106, 8-(7-(6-amino-4-methyl-3-(trifluoromethyl)pyridin-2-yl)-6-chloro-8-fluoro-2-(((2R,7aS)-2-fluorotetrahydro-1H-pyrrolizin-7a(5H)-yl)methoxy)quinazolin-4-yl)-3-methyl-1-oxa-3,8-diazaspiro[4.5]decan-2-one] | 23
6 | Cc1nc(N)nc(-c2c(Cl)cc3c(N4CCC(C#N)CC4)nc(OC[C@@]45CCCN4C[C@H](F)C5)nc3c2F)c1C(F)(F)F [Example 107, 1-(7-(2-amino-6-methyl-5-(trifluoromethyl)pyrimidin-4-yl)-6-chloro-8-fluoro-2-(((2R,7aS)-2-fluorotetrahydro-1H-pyrrolizin-7a(5H)-yl)methoxy)quinazolin-4-yl)piperidine-4-carbonitrile] | 73
7 | COc1cc(N)nc(-c2c(Cl)cc3c(N4CCC(C#N)CC4)nc(OC[C@@]45CCCN4C[C@H](F)C5)nc3c2F)c1C(F)(F)F [Example 108, 1-(7-(6-amino-4-methoxy-3-(trifluoromethyl)pyridin-2-yl)-6-chloro-8-fluoro-2-(((2R,7aS)-2-fluorotetrahydro-1H-pyrrolizin-7a(5H)-yl)methoxy)quinazolin-4-yl)piperidine-4-carbonitrile] | > 1000
8 | Nc1cc(Cl)c(C(F)(F)F)c(-c2ncc3c(NC4CC4)nc(OC[C@@]45CCCN4C[C@H](F)C5)nc3c2F)c1 [Example 110, 7-(5-amino-3-chloro-2-(trifluoromethyl)phenyl)-N-cyclopropyl-8-fluoro-2-(((2R,7aS)-2-fluorotetrahydro-1H-pyrrolizin-7a(5H)-yl)methoxy) pyrido[4,3-d]pyrimidin-4-amine] | 17
9 | Nc1cc(Cl)c(C(F)(F)F)c(-c2ncc3c(NC4CCC4)nc(OC[C@@]45CCCN4C[C@H](F)C5)nc3c2F)c1 [Example 111, 7-(5-amino-3-chloro-2-(trifluoromethyl)phenyl)-N-cyclobutyl-8-fluoro-2-(((2R,7aS)-2-fluorotetrahydro-1H-pyrrolizin-7a(5H)-yl)methoxy) pyrido[4,3-d]pyrimidin-4-amine] | 40
10 | Nc1cc(Cl)c(C(F)(F)F)c(-c2ncc3c(NC45CC(C4)C5)nc(OC[C@@]45CCCN4C[C@H](F)C5)nc3c2F)c1 [Example 112, 7-(5-amino-3-chloro-2-(trifluoromethyl)phenyl)-N-(bicyclo [1.1.1]pentan-1-yl)-8-fluoro-2-(((2R,7aS)-2-fluorotetrahydro-1H-pyrrolizin-7a(5H)-yl)methoxy) pyrido[4,3-d]pyrimidin-4-amine] | 19
11 | Nc1cc(Cl)c(C(F)(F)F)c(-c2ncc3c(N4CCOCC4)nc(OC[C@@]45CCCN4C[C@H](F)C5)nc3c2F)c1 [Example 113, 3-chloro-5-(8-fluoro-2-(((2R,7aS)-2-fluorotetrahydro-1H-pyrrolizin-7a(5H)-yl)methoxy)-4-morpholinopyrido[4,3-d]pyrimidin-7-yl)-4-(trifluoromethyl)aniline] | 11
12 | C[C@H]1COCCN1c1nc(OC[C@@]23CCCN2C[C@H](F)C3)nc2c(F)c(-c3cc(N)cc(Cl)c3C(F)(F)F)ncc12 [Example 114, 3-chloro-5-(8-fluoro-2-(((2R,7aS)-2-fluorotetrahydro-1H-pyrrolizin-7a(5H)-yl)methoxy)-4-((S)-3-methylmorpholino)pyrido[4,3-d]pyrimidin-7-yl)-4-(trifluoromethyl)aniline] | 9.2
13 | C[C@@H]1COCCN1c1nc(OC[C@@]23CCCN2C[C@H](F)C3)nc2c(F)c(-c3cc(N)cc(Cl)c3C(F)(F)F)ncc12 [Example 115, 3-chloro-5-(8-fluoro-2-(((2R,7aS)-2-fluorotetrahydro-1H-pyrrolizin-7a(5H)-yl)methoxy)-4-((R)-3-methylmorpholino)pyrido[4,3-d]pyrimidin-7-yl)-4-(trifluoromethyl)aniline] | 6.5
14 | CC[C@H]1COCCN1c1nc(OC[C@@]23CCCN2C[C@H](F)C3)nc2c(F)c(-c3cc(N)cc(Cl)c3C(F)(F)F)ncc12 [Example 116, 3-chloro-5-(4-((S)-3-ethylmorpholino)-8-fluoro-2-(((2R,7aS)-2-fluorotetrahydro-1H-pyrrolizin-7a(5H)-yl)methoxy)pyrido[4,3-d]pyrimidin-7-yl)-4-(trifluoromethyl)aniline] | 4.4
15 | CC[C@@H]1COCCN1c1nc(OC[C@@]23CCCN2C[C@H](F)C3)nc2c(F)c(-c3cc(N)cc(Cl)c3C(F)(F)F)ncc12 [Example 117, 3-chloro-5-(4-((R)-3-ethylmorpholino)-8-fluoro-2-(((2R,7aS)-2-fluorotetrahydro-1H-pyrrolizin-7a(5H)-yl)methoxy)pyrido[4,3-d]pyrimidin-7-yl)-4-(trifluoromethyl)aniline] | 12
16 | C[C@H]1COC[C@H](C)N1c1nc(OC[C@@]23CCCN2C[C@H](F)C3)nc2c(F)c(-c3cc(N)cc(Cl)c3C(F)(F)F)ncc12 [Example 118, 3-chloro-5-(4-((3S,5S)-3,5-dimethylmorpholino)-8-fluoro-2-(((2R,7aS)-2-fluorotetrahydro-1H-pyrrolizin-7a(5H)-yl)methoxy)pyrido[4,3-d]pyrimidin-7-yl)-4-(trifluoromethyl)aniline] | 23
17 | CC1CN(c2nc(OC[C@@]34CCCN3C[C@H](F)C4)nc3c(F)c(-c4cc(N)cc(Cl)c4C(F)(F)F)ncc23)CCO1 (stereo partly drawn) [Example 119, 3-chloro-5-(8-fluoro-2-(((2R,7aS)-2-fluorotetrahydro-1H-pyrrolizin-7a(5H)-yl)methoxy)-4-(2-methylmorpholino)pyrido[4,3-d]pyrimidin-7-yl)-4-(trifluoromethyl)aniline] | 24
18 | Nc1cc(Cl)c(C(F)(F)F)c(-c2ncc3c(N4CCO[C@H](CO)C4)nc(OC[C@@]45CCCN4C[C@H](F)C5)nc3c2F)c1 [Example 120, ((2S)-4-(7-(5-amino-3-chloro-2-(trifluoromethyl)phenyl)-8-fluoro-2-((2-fluorotetrahydro-1H-pyrrolizin-7a(5H)-yl)methoxy)pyrido[4,3-d]pyrimidin-4-yl)morpholin-2-yl)methanol] | 6.6
19 | N#CC1CCN(c2nc(OC[C@@]34CCCN3C[C@H](F)C4)nc3c(F)c(-c4cc(N)cc(Cl)c4C(F)(F)F)ncc23)CC1 [Example 121, 1-(7-(5-amino-3-chloro-2-(trifluoromethyl)phenyl)-8-fluoro-2-(((2R,7aS)-2-fluorotetrahydro-1H-pyrrolizin-7a(5H)-yl)methoxy)pyrido[4,3-d]pyrimidin-4-yl)piperidine-4-carbonitrile] | 13
20 | N#CC1CCN(c2nc(OC[C@@]34CCCN3C[C@H](F)C4)nc3c(F)c(-c4cc(N)cc(Cl)c4C(F)(F)F)ncc23)CC1F (stereo partly drawn) [Example 122, 1-(7-(5-amino-3-chloro-2-(trifluoromethyl)phenyl)-8-fluoro-2-(((2R,7aS)-2-fluorotetrahydro-1H-pyrrolizin-7a(5H)-yl)methoxy)pyrido[4,3-d]pyrimidin-4-yl)-3-fluoropiperidine-4-carbonitrile] | 28
21 | CC1CN(c2nc(OC[C@@]34CCCN3C[C@H](F)C4)nc3c(F)c(-c4cc(N)cc(Cl)c4C(F)(F)F)ncc23)CCC1C#N (stereo partly drawn) [Example 123, 1-(7-(5-amino-3-chloro-2-(trifluoromethyl)phenyl)-8-fluoro-2-(((2R,7aS)-2-fluorotetrahydro-1H-pyrrolizin-7a(5H)-yl)methoxy)pyrido[4,3-d]pyrimidin-4-yl)-3-methylpiperidine-4-carbonitrile] | 22
22 | CC1CC(C#N)CCN1c1nc(OC[C@@]23CCCN2C[C@H](F)C3)nc2c(F)c(-c3cc(N)cc(Cl)c3C(F)(F)F)ncc12 (stereo partly drawn) [Example 124, 1-(7-(5-amino-3-chloro-2-(trifluoromethyl)phenyl)-8-fluoro-2-(((2R,7aS)-2-fluorotetrahydro-1H-pyrrolizin-7a(5H)-yl)methoxy)pyrido[4,3-d]pyrimidin-4-yl)-2-methylpiperidine-4-carbonitrile] | 15
